From PubChem BioAssay (NCI)
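Protocol summary: plate cells (96-well), add compound at 5 concentrations, incubate 48 h, interpolate endpoints linearly. GI50 = concentration required for 50% inhibition of growth. Definition used: TGI = concentration required for complete inhibition of growth.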

Legend:
Assay in all cases: growth of human tumour cells (NCI), 48 h
[1] = test system: OVCAR-3 ovarian
[2] = test system: HOP-62 NSCLC
[3] = test system: UACC-257 melanoma
[4] = test system: PC-3 prostate
[5] = test system: NCI/ADR-RES ovarian
[6] = test system: NCI-H522 lung
[7] = test system: MALME-3M melanoma
[8] = test system: NCI-H23 lung
[9] = test system: SNB-19 CNS
[10] = test system: SK-MEL-5 melanoma
[11] = test system: HS 578T breast
[12] = test system: SK-OV-3 ovarian
[13] = test system: KM12 colon
[14] = test system: T-47D breast
[15] = test system: SK-MEL-28 melanoma
[16] = test system: MOLT-4 leukemia
[17] = test system: SF-295 CNS
[18] = test system: HCT-116 colon
[19] = test system: NCI-H460 lung
[20] = test system: MDA-MB-231 breast
[21] = test system: SF-539 CNS
[22] = test system: UACC-62 melanoma
[23] = test system: RPMI-8226 leukemia
[24] = test system: NCI-H226 lung
[25] = test system: IGROV1 ovarian
[26] = test system: LOX IMVI melanoma
[27] = test system: MCF7 breast
[28] = test system: ACHN renal
[29] = test system: SK-MEL-2 melanoma
[30] = test system: BT-549 breast
[31] = test system: SW-620 colon
[32] = test system: U251 CNS
[33] = test system: RXF 393 renal
[34] = test system: TK-10 renal
[35] = test system: OVCAR-4 ovarian
[36] = test system: HCC-2998 colon
[37] = test system: HT29 colon
[38] = test system: HOP-92 NSCLC
[39] = test system: M14 melanoma
[40] = test system: OVCAR-5 ovarian
[41] = test system: SN12C renal
[42] = test system: DU-145 prostate
[43] = test system: SF-268 CNS
[44] = test system: HCT-15 colon
[45] = test system: OVCAR-8 ovarian
[46] = test system: CAKI-1 renal
[47] = test system: A498 renal
[48] = test system: A549 NSCLC
[49] = test system: COLO 205 colon
[50] = test system: SNB-75 CNS
[51] = test system: 786-0 renal
[52] = test system: MDA-MB-435
[53] = test system: CCRF-CEM leukemia
[54] = test system: UO-31 renal
[55] = test system: EKVX NSCLC
[56] = test system: HL-60(TB) leukemia
[57] = test system: K-562 leukemia

O=C(CC1(O)C(=O)Nc2ccc(Br)cc21)c1ccc(C(=O)NCC2CCC3(CC2)OOC2(CCCCC2)OO3)cc1 (stereo not drawn)
GI50 [1]: 2.13 µM
TGI [1]: 10.4 µM
GI50 [2]: 11 µM
TGI [2]: 40.7 µM
GI50 [3]: 10.6 µM
TGI [3]: 29 µM
GI50 [4]: 2.64 µM
TGI [4]: 22.3 µM
GI50 [5]: 15.1 µM
TGI [5]: 69.3 µM
GI50 [6]: 0.336 µM
TGI [6]: 1.37 µM
GI50 [7]: 2.47 µM
TGI [7]: 6.63 µM
GI50 [8]: 6.43 µM
TGI [8]: 32 µM
GI50 [9]: 10.5 µM
TGI [9]: 38.7 µM
GI50 [10]: 2.4 µM
TGI [10]: 7.09 µM
GI50 [11]: 9.26 µM
TGI [11]: > 100 µM
GI50 [12]: 10.4 µM
TGI [12]: 31.3 µM
GI50 [13]: 3.08 µM
TGI [13]: 31.2 µM
GI50 [14]: 2.69 µM
TGI [14]: 24.4 µM
GI50 [15]: 11.1 µM
TGI [15]: 46 µM
GI50 [16]: 2.14 µM
TGI [16]: 5.87 µM
GI50 [17]: 7.1 µM
TGI [17]: 35 µM
GI50 [18]: 3.09 µM
TGI [18]: 30 µM
GI50 [19]: 3.37 µM
TGI [19]: 30.2 µM
GI50 [20]: 5.96 µM
TGI [20]: 37.1 µM
GI50 [21]: 3.9 µM
TGI [21]: 17.6 µM
GI50 [22]: 5.77 µM
TGI [22]: 29.2 µM
GI50 [23]: 1.65 µM
TGI [23]: 4.47 µM
GI50 [24]: 4.7 µM
TGI [24]: 30 µM
GI50 [25]: 1.52 µM
TGI [25]: 11.6 µM
GI50 [26]: 1.95 µM
TGI [26]: 29 µM
GI50 [27]: 3.05 µM
TGI [27]: 26.5 µM
GI50 [28]: 2.02 µM
TGI [28]: 5.38 µM
GI50 [29]: 2.92 µM
TGI [29]: 9.23 µM
GI50 [30]: 7.28 µM
TGI [30]: 32.7 µM
GI50 [31]: 2.76 µM
TGI [31]: 13 µM
GI50 [32]: 2.24 µM
TGI [32]: 6.51 µM
GI50 [33]: 5.46 µM
TGI [33]: 26.7 µM
GI50 [34]: 3.71 µM
TGI [34]: 11.9 µM
GI50 [35]: 6.93 µM
TGI [35]: 72.3 µM
GI50 [36]: 12.7 µM
TGI [36]: 37.6 µM
GI50 [37]: 4.96 µM
TGI [37]: 23 µM
GI50 [38]: 1.9 µM
TGI [38]: 4.46 µM
GI50 [39]: 8.68 µM
TGI [39]: 63.4 µM
GI50 [40]: 13.8 µM
TGI [40]: 63.8 µM
GI50 [41]: 10.4 µM
TGI [41]: 34.9 µM
GI50 [42]: 8.77 µM
TGI [42]: 39.6 µM
GI50 [43]: 6.16 µM
TGI [43]: 36.5 µM
GI50 [44]: 4.59 µM
TGI [44]: 34.3 µM
GI50 [45]: 4.57 µM
TGI [45]: > 100 µM
GI50 [46]: 13.5 µM
TGI [46]: 31.2 µM
GI50 [47]: 14.7 µM
TGI [47]: 30.2 µM
GI50 [48]: 4.3 µM
TGI [48]: > 100 µM
GI50 [49]: 3.74 µM
TGI [49]: 25.5 µM

CCOC(=O)c1c2c(c(O)c3ccccc3c(O)n(-c3ccc(C)cc3)c1C)C(=O)C=CC2=O
TGI [1]: 35.2 µM
TGI [2]: 61.7 µM
TGI [3]: 29.3 µM
TGI [4]: > 100 µM
TGI [5]: 48.7 µM
TGI [6]: 41.7 µM
TGI [7]: 37.4 µM
TGI [8]: 52 µM
TGI [9]: > 100 µM
TGI [50]: 43.6 µM
TGI [10]: 31.9 µM
TGI [11]: 66 µM
TGI [12]: 89.7 µM
TGI [13]: 81.7 µM
TGI [51]: 33.5 µM
TGI [52]: 35.7 µM
TGI [14]: 39.4 µM
TGI [53]: 78.9 µM
TGI [16]: 29.4 µM
TGI [17]: 37 µM
TGI [54]: > 100 µM
TGI [18]: 38.3 µM
TGI [19]: 84.6 µM
TGI [20]: 55.7 µM
TGI [21]: 53.9 µM
TGI [22]: 71.7 µM
TGI [23]: 30.3 µM
TGI [24]: > 100 µM
TGI [25]: > 100 µM
TGI [26]: 38.8 µM
TGI [55]: 85.5 µM
TGI [27]: 55.7 µM
TGI [28]: 38.4 µM
TGI [29]: 64.7 µM
TGI [30]: 71.2 µM
TGI [31]: 51.5 µM
TGI [32]: 52.9 µM
TGI [33]: 55.7 µM
TGI [56]: 51.4 µM
TGI [34]: 57.2 µM
TGI [35]: 29.9 µM
TGI [36]: 36.9 µM
TGI [37]: 41.1 µM
TGI [38]: 56.9 µM
TGI [39]: 44.8 µM
TGI [40]: > 100 µM
TGI [41]: 58.9 µM
TGI [42]: 91 µM
TGI [43]: > 100 µM
TGI [57]: 47.2 µM
TGI [44]: 34.7 µM
TGI [45]: 41.3 µM
TGI [46]: 43.3 µM
TGI [48]: > 100 µM
TGI [49]: 48.5 µM
